Assay results published in PubChem BioAssay AID1963959 (Molecular Pharmacology Branch, DTP, NCI, 2024).

Test system: T-47D spheroids with HUVEC/MSC, viability
Assay: Anticancer human tumor T-47D cell line growth inhibition [PI3K];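 further: spheroids exposed to agents for seven days before reading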;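 on viability, T/C: percent of DMSO vehicle control luminescence so 100% = untreated growth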
Conditions: for viability, T/C: stronger effect = lower value; active means viability on the fitted dose curve at most 10% of control; inactive means the rest
Outline: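 Targeted small molecules plus PI3K inhibitors, half-log dose series from Cmax (default top 10 microM), were applied to heterotypic spheroids of cancer cells with HUVEC and MSCs. Viability indicated growth inhibition.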

[1] = curve of first compound, second compound 0.00316 µM
[2] = curve of first compound, second compound 0.01 µM
[3] = curve of first compound, second compound 0.0316 µM
[4] = curve of first compound, second compound 0.1 µM
[5] = curve of first compound, second compound 0.316 µM
[6] = curve of first compound, second compound 1 µM
[7] = second compound 0.00316 µM, first compound 0.0316 µM
[8] = second compound 0.00316 µM, first compound 0.1 µM
[9] = second compound 0.01 µM, first compound 0.0316 µM
[10] = second compound 0.01 µM, first compound 0.1 µM
[11] = second compound 0.0316 µM, first compound 0.000316 µM
[12] = second compound 0.0316 µM, first compound 0.001 µM
[13] = second compound 0.0316 µM, first compound 0.00316 µM
[14] = second compound 0.0316 µM, first compound 0.01 µM
[15] = second compound 0.0316 µM, first compound 0.0316 µM
[16] = second compound 0.0316 µM, first compound 0.1 µM
[17] = second compound 0.1 µM, first compound 0.000316 µM
[18] = second compound 0.1 µM, first compound 0.001 µM
[19] = second compound 0.1 µM, first compound 0.00316 µM
[20] = second compound 0.1 µM, first compound 0.01 µM
[21] = second compound 0.1 µM, first compound 0.0316 µM
[22] = second compound 0.1 µM, first compound 0.1 µM
[23] = second compound 0.316 µM, first compound 0.000316 µM
[24] = second compound 0.316 µM, first compound 0.001 µM
[25] = second compound 0.316 µM, first compound 0.00316 µM
[26] = second compound 0.316 µM, first compound 0.01 µM
[27] = second compound 0.316 µM, first compound 0.0316 µM
[28] = second compound 0.316 µM, first compound 0.1 µM
[29] = second compound 1 µM, first compound 0.000316 µM
[30] = second compound 1 µM, first compound 0.001 µM
[31] = second compound 1 µM, first compound 0.00316 µM
[32] = second compound 1 µM, first compound 0.01 µM
[33] = second compound 1 µM, first compound 0.0316 µM
[34] = second compound 1 µM, first compound 0.1 µM
[35] = second compound 0.00316 µM, first compound 0.316 µM
[36] = second compound 0.00316 µM, first compound 1 µM
[37] = second compound 0.00316 µM, first compound 3.16 µM
[38] = second compound 0.00316 µM, first compound 10 µM
[39] = second compound 0.01 µM, first compound 0.316 µM
[40] = second compound 0.01 µM, first compound 1 µM
[41] = second compound 0.01 µM, first compound 3.16 µM
[42] = second compound 0.01 µM, first compound 10 µM
[43] = second compound 0.0316 µM, first compound 0.316 µM
[44] = second compound 0.0316 µM, first compound 1 µM
[45] = second compound 0.0316 µM, first compound 3.16 µM
[46] = second compound 0.0316 µM, first compound 10 µM
[47] = second compound 0.1 µM, first compound 0.316 µM
[48] = second compound 0.1 µM, first compound 1 µM
[49] = second compound 0.1 µM, first compound 3.16 µM
[50] = second compound 0.1 µM, first compound 10 µM
[51] = second compound 0.316 µM, first compound 0.316 µM
[52] = second compound 0.316 µM, first compound 1 µM
[53] = second compound 0.316 µM, first compound 3.16 µM
[54] = second compound 0.316 µM, first compound 10 µM
[55] = second compound 1 µM, first compound 0.316 µM
[56] = second compound 1 µM, first compound 1 µM
[57] = second compound 1 µM, first compound 3.16 µM
[58] = second compound 1 µM, first compound 10 µM

Cn1ncnc1[C@H]1c2n[nH]c(=O)c3cc(F)cc(c23)N[C@@H]1c1ccc(F)cc1 + CC(Nc1ccc2c(c1)OCCn1cc(N3C(=O)OCC3C(F)F)nc1-2)C(N)=O
> 100 nM: IC50 [1] | IC50 [2] | IC50 [3] | IC50 [4] | IC50 [5] | IC50 [6]
inactive: viability, T/C (second compound 0.00316 µM, first compound 0.000316 µM) 88.8% | viability, T/C (second compound 0.00316 µM, first compound 0.001 µM) 82.8% | viability, T/C (second compound 0.00316 µM, first compound 0.00316 µM) 109% | viability, T/C (second compound 0.00316 µM, first compound 0.01 µM) 86.9% | viability, T/C [7] 96.3% | viability, T/C [8] 112% | viability, T/C (second compound 0.01 µM, first compound 0.000316 µM) 113% | viability, T/C (second compound 0.01 µM, first compound 0.001 µM) 78.7% | viability, T/C (second compound 0.01 µM, first compound 0.00316 µM) 80.3% | viability, T/C (second compound 0.01 µM, first compound 0.01 µM) 96.2% | viability, T/C [9] 91.3% | viability, T/C [10] 89.4% | viability, T/C [11] 108% | viability, T/C [12] 74.7% | viability, T/C [13] 88.8% | viability, T/C [14] 85% | viability, T/C [15] 81.2% | viability, T/C [16] 75.8% | viability, T/C [17] 79.2% | viability, T/C [18] 76.7% | viability, T/C [19] 78.3% | viability, T/C [20] 81.6% | viability, T/C [21] 86.5% | viability, T/C [22] 76.2% | viability, T/C [23] 77.1% | viability, T/C [24] 80.1% | viability, T/C [25] 57.1% | viability, T/C [26] 65.6% | viability, T/C [27] 62.3% | viability, T/C [28] 61.9% | viability, T/C [29] 61.5% | viability, T/C [30] 48.5% | viability, T/C [31] 54.2% | viability, T/C [32] 58% | viability, T/C [33] 55.2% | viability, T/C [34] 49.8%

CC(C)n1nc(-c2ccc3oc(N)nc3c2)c2c(N)ncnc21 + Cc1nc(NC(=O)N2CCCC2C(N)=O)sc1-c1ccnc(C(C)(C)C(F)(F)F)c1
52.5 nM: IC50 [5]
72.6 nM: IC50 [3]
26.7 nM: IC50 [6]
active: viability, T/C (second compound 3.16 µM, first compound 0.1 µM) 6.08% | viability, T/C (second compound 10 µM, first compound 0.1 µM) 2.67%
inactive: viability, T/C [11] 106% | viability, T/C [12] 94.2% | viability, T/C [13] 95.9% | viability, T/C [14] 95.9% | viability, T/C [15] 78.8% | viability, T/C [16] 38.7% | viability, T/C [17] 110% | viability, T/C [18] 87.2% | viability, T/C [19] 99.3% | viability, T/C [20] 109% | viability, T/C [21] 79% | viability, T/C [22] 27.9% | viability, T/C [23] 101% | viability, T/C [24] 98.9% | viability, T/C [25] 82.3% | viability, T/C [26] 92.7% | viability, T/C [27] 67.4% | viability, T/C [28] 26.9% | viability, T/C [29] 89% | viability, T/C [30] 93.2% | viability, T/C [31] 86.3% | viability, T/C [32] 70.7% | viability, T/C [33] 47% | viability, T/C [34] 21.2% | viability, T/C (second compound 3.16 µM, first compound 0.000316 µM) 62.9% | viability, T/C (second compound 3.16 µM, first compound 0.001 µM) 68.3% | viability, T/C (second compound 3.16 µM, first compound 0.00316 µM) 64.6% | viability, T/C (second compound 3.16 µM, first compound 0.01 µM) 42.7% | viability, T/C (second compound 3.16 µM, first compound 0.0316 µM) 33.1% | viability, T/C (second compound 10 µM, first compound 0.000316 µM) 37.5% | viability, T/C (second compound 10 µM, first compound 0.001 µM) 40.2% | viability, T/C (second compound 10 µM, first compound 0.00316 µM) 33.1% | viability, T/C (second compound 10 µM, first compound 0.01 µM) 21.7% | viability, T/C (second compound 10 µM, first compound 0.0316 µM) 12.8%
60.8 nM: IC50 [4]
9.07 nM: IC50 (curve of first compound, second compound 3.16 µM)
< 0.316 nM: IC50 (curve of first compound, second compound 10 µM)

CC1(C)CCC(Nc2ncc(C(F)(F)F)c(-c3c[nH]c4c(P(C)(C)=O)c(C#N)ccc34)n2)CN1 (stereo not given) + COc1c(OCCCN2CCOCC2)ccc2c3n(c(=NC(=O)c4cnc(N)nc4)nc12)CCN3
> 10000 nM: IC50 [1] | IC50 [2]
inactive: viability, T/C [7] 70.8% | viability, T/C [8] 60.4% | viability, T/C [35] 68% | viability, T/C [36] 74.5% | viability, T/C [37] 77.7% | viability, T/C [38] 57.5% | viability, T/C [9] 67.6% | viability, T/C [10] 62.4% | viability, T/C [39] 55.2% | viability, T/C [40] 50.2% | viability, T/C [41] 73.8% | viability, T/C [42] 46% | viability, T/C [15] 44.3% | viability, T/C [16] 42.6% | viability, T/C [43] 42.8% | viability, T/C [44] 38.8% | viability, T/C [45] 46.9% | viability, T/C [46] 14.1% | viability, T/C [21] 28% | viability, T/C [22] 33.8% | viability, T/C [47] 28.8% | viability, T/C [48] 29.8% | viability, T/C [49] 26.5% | viability, T/C [50] 8.25% | viability, T/C [27] 20% | viability, T/C [28] 24.4% | viability, T/C [51] 15.6% | viability, T/C [52] 19.1% | viability, T/C [53] 17.4% | viability, T/C [33] 8.6%
active: viability, T/C [54] 3.95% | viability, T/C [34] 12.8% | viability, T/C [55] 8.27% | viability, T/C [56] 7.59% | viability, T/C [57] 10.4% | viability, T/C [58] 2.66%
< 31.6 nM: IC50 [3] | IC50 [4] | IC50 [5] | IC50 [6]

CC(Cn1ccc(-c2ccc(C#N)c(Cl)c2)n1)NC(=O)c1cc(C(C)O)[nH]n1 (stereo not given)
> 10000 nM: IC50 (curve of compound)
inactive: viability, T/C (compound 0.0316 µM) 100% [middle of 4 runs] | viability, T/C (compound 0.1 µM) 107% [middle of 4 runs] | viability, T/C (compound 0.316 µM) 92.3% [middle of 4 runs] | viability, T/C (compound 1 µM) 95.2% [middle of 4 runs] | viability, T/C (compound 3.16 µM) 89.8% [middle of 4 runs] | viability, T/C (compound 10 µM) 58.7% [middle of 4 runs]

Cn1ncc(Cl)c1-c1cc(C(=O)NC(CN)Cc2cccc(F)c2)sc1Cl (stereo not given) + COc1c(OCCCN2CCOCC2)ccc2c3n(c(=NC(=O)c4cnc(N)nc4)nc12)CCN3
inactive: viability, T/C [7] 105% | viability, T/C [8] 102% | viability, T/C [35] 82.3% | viability, T/C [36] 77.4% | viability, T/C [37] 66.2% | viability, T/C [38] 77.7% | viability, T/C [9] 108% | viability, T/C [10] 99.8% | viability, T/C [39] 80.5% | viability, T/C [40] 70.3% | viability, T/C [41] 70% | viability, T/C [42] 77.7% | viability, T/C [15] 94.4% | viability, T/C [16] 70.6% | viability, T/C [43] 61.5% | viability, T/C [44] 65% | viability, T/C [45] 65.1% | viability, T/C [46] 73.2% | viability, T/C [21] 48.8% | viability, T/C [22] 46.5% | viability, T/C [47] 39.4% | viability, T/C [48] 39.2% | viability, T/C [49] 55.7% | viability, T/C [50] 48.7% | viability, T/C [27] 17.2% | viability, T/C [28] 20.4% | viability, T/C [51] 19.1% | viability, T/C [52] 19.6% | viability, T/C [53] 24.3% | viability, T/C [54] 39.5%
< 31.6 nM: IC50 [4] | IC50 [5] | IC50 [6]
active: viability, T/C [33] 7.39% | viability, T/C [34] 7.86% | viability, T/C [55] 6.72% | viability, T/C [56] 6.88% | viability, T/C [57] 15.6% | viability, T/C [58] 10.9%
> 10000 nM: IC50 [1] | IC50 [2] | IC50 [3]
